{"source": "paper PMC10618370", "about": "“Mur ligase F as a new target for the flavonoids quercitrin, myricetin, and (–)-epicatechin” (Journal of Computer-Aided Molecular Design, 2023)", "key": {"E. coli MurD": {"molecular_target": "E. coli MurD (Escherichia coli, UniProt P14900)", "sequence (P14900 whole entry)": "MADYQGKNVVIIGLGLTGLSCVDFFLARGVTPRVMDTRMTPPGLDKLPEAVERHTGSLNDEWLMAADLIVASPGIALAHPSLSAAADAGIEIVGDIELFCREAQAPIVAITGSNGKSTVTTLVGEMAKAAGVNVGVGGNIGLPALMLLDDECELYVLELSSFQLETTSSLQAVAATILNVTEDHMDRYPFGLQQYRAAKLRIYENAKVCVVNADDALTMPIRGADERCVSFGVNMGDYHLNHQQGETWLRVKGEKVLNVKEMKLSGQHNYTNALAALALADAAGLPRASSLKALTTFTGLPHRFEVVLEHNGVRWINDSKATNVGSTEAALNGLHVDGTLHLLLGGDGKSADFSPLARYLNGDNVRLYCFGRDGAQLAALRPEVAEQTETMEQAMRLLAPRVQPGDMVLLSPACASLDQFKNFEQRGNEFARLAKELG", "assay": "MurD inhibition assay (Malachite green)", "format": "biochemical", "conditions": "0.25 h; residual activity at 100 µM compound; mean ± SD of three independent experiments; read-out: RA (%) @ 100 µM MurD", "protocol": "(§1) Inhibition of the Mur ligases was determined using the Malachite green assay, with slight modifications. […] In all cases, the final concentration of DMSO was 5% (v/v).\n(§2) After incubation for 15 min at 37 °C, the enzyme reaction was terminated by the addition of 100 µM Biomol green reagent®, and the absorbance was measured at 650 nm after 5 min. Experiments to determine the RA run in triplicate. Residual activities were calculated with respect to control assays without the tested compounds, but with the 5% DMSO carrier. The IC50 values were determined by measuring the residual activities at seven different compound concentrations, and they represent the concentration of the compound at which the residual activity was 50%. IC50 values were obtained by plotting the residual enzyme activities against the applied inhibitor concentrations, fitting the experimental data to the 4-parameter Hill equation: Y=Bottom-Top-Bottom/1+10^logIC50-X×HillSlope , where X is the logarithm of the inhibitor concentration, and Y is the residual activity. The IC50 values were determined in three independent experiments. GraphPad Prism 8.2.0 (GraphPad Software, San Diego, CA, USA) was used for the fitting procedure.\n(§3) The assay detects the phosphate formed in each enzyme reaction. To avoid any possibility of the compounds inhibiting the enzymes due to aggregation, a detergent (0.005% Triton-X114) was added to the test system."}, "S. aureus (ATCC 29,213)": {"test_system": "S. aureus (ATCC 29,213)", "assay": "Antibacterial assay, broth microdilution MIC", "format": "cell-based", "conditions": "broth microdilution; for MIC: Staphylococcus aureus, ATCC29, 20 h at 35 °C, read-out: MIC S.aureus", "protocol": "(§4) Antimicrobial testing was performed by the broth microdilution method in 96-well plates following the Clinical and Laboratory Standards Institute guidelines and European Committee on Antimicrobial Susceptibility Testing recommendations (Clinical and Laboratory Standards Institute). Bacterial suspensions equivalent to 0.5 McFarland turbidity standard were diluted with cation-adjusted Mueller–Hinton broth with TES buffering (ThermoFisher Scientific), for a final inoculum of 10^5 CFU/ mL. Compounds dissolved in DMSO and the inoculum were mixed and incubated for 20 h at 35 °C. […] The MICs were determined against two reference bacterial strains, S. aureus (ATCC 29,213) and E. coli (ATCC 25,922). Tetracycline was used as the positive control on every assay plate, with MICs of 0.5 and 1 µg/mL for S. aureus and E. coli, respectively. All MICs were determined in three independent experiments."}, "E. coli (ATCC 25,922)": {"test_system": "E. coli (ATCC 25,922)", "assay": "Antibacterial assay, broth microdilution MIC", "format": "cell-based", "conditions": "broth microdilution; for MIC: Escherichia coli, ATCC25, 20 h at 35 °C, read-out: MIC E.coli", "protocol": "as §4"}, "MurF from E. coli": {"molecular_target": "MurF from E. coli (Escherichia coli, UniProt P11880)", "sequence (P11880 whole entry)": "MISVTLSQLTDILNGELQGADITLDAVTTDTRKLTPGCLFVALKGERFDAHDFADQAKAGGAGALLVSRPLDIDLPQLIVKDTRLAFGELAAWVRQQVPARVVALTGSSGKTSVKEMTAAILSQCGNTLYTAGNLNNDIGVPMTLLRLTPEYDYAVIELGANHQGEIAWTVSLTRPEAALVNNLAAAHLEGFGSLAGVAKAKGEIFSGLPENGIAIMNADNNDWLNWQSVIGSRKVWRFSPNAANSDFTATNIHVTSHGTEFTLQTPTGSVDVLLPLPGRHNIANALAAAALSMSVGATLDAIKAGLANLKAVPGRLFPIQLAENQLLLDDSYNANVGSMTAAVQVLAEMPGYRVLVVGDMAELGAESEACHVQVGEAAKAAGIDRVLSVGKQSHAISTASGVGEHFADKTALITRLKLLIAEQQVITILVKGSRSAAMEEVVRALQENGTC", "assay": "Steady-state kinetic analysis of compound 21", "format": "biochemical", "protocol": "For compound 21, Ki values were determined against MurF from E. coli. Ki determinations were performed under similar conditions to those described for the inhibition assay, where the different concentrations of one substrate and a fixed concentration of the other two were used. First, the concentration of UM3DAP was varied (25, 50, 100, 200 µM) at fixed ATP (500 µM) and D-Ala-D-Ala (600 µM)), then the concentration of D-Ala-D-Ala was varied (50, 100, 200, 400, 600 µM) at fixed ATP (500 µM) and UM3DAP (100 µM), and finally, the concentration of ATP was varied (50, 100, 350, 500 µM) at fixed UM3DAP (100 µM) and D-Ala-D-Ala (600 µM). The concentrations of 21 were 0, 25, 50, 75, 100, 200, 350 and 500 µM and the concentration of the MurF was 20 nM. After a 15 min incubation, 100 µM Biomol green reagent® was added, and the absorbance was read at 650 nm after 5 min. All experiments were run in triplicate.\nThe data were analysed using the SigmaPlot 12.0 software. The initial velocities were fitted to competitive, non-competitive, uncompetitive and mixed enzyme inhibition. The Ki and mode of inhibition from the best ranking model were used, as provided by the software."}, "E. coli MurE": {"molecular_target": "E. coli MurE (Escherichia coli, UniProt P22188)", "sequence (P22188 whole entry)": "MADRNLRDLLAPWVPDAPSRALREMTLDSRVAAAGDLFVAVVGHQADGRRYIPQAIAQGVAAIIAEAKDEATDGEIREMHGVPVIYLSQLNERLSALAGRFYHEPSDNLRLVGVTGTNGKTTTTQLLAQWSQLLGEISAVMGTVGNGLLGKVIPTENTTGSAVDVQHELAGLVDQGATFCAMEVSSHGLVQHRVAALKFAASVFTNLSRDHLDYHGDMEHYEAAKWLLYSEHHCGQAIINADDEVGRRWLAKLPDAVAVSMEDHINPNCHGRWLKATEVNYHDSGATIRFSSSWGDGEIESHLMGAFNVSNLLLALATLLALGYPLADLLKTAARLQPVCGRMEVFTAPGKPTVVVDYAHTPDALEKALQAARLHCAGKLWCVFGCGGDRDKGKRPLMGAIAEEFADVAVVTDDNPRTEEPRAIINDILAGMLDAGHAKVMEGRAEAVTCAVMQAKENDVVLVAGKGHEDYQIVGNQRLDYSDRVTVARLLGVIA", "assay": "MurE inhibition assay (Malachite green)", "format": "biochemical", "protocol": "as §1, §2, §3"}, "E. coli MurC": {"molecular_target": "E. coli MurC (Escherichia coli, UniProt P17952)", "sequence (P17952 whole entry)": "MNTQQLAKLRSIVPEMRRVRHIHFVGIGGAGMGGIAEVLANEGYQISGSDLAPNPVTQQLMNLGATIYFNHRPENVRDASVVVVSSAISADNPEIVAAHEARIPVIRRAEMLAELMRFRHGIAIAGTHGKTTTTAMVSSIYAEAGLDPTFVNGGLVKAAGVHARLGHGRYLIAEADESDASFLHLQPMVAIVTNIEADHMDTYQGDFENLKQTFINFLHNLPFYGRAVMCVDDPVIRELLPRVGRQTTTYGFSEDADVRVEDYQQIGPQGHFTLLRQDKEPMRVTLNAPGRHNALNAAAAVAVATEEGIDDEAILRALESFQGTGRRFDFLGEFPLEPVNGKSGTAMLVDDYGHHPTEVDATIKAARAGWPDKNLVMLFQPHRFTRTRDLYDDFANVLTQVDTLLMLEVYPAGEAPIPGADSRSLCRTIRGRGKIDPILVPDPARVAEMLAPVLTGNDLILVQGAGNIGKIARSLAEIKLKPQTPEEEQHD", "assay": "MurC inhibition assay (Malachite green)", "format": "biochemical", "conditions": "0.25 h; residual activity at 100 µM compound; mean ± SD of three independent experiments; read-out: RA (%) @ 100 µM MurC", "protocol": "as §1, §2, §3"}, "E. coli MurF": {"molecular_target": "E. coli MurF (Escherichia coli, UniProt P11880)", "sequence (P11880 whole entry)": "as the sequence (P11880 whole entry) above", "assay": "MurF inhibition assay (Malachite green)", "format": "biochemical", "conditions": "seven compound concentrations, 4-parameter Hill fit; three independent experiments", "protocol": "as §1, §2, §3"}, "[1]": {"assay": "Solubility under the Mur ligase assay conditions", "format": "physicochemical"}}, "note": "Entries after “also recorded” stand apart in the source; their conditions may differ.", "data": [{"smiles": "Oc1cc(O)c2c(c1)O[C@H](c1ccc(O)c(O)c1)[C@H](O)C2", "note": "[Compound 21, (–)-epicatechin]", "values": [{"measurement": "remaining activity at 100 µM", "setting": "E. coli MurD", "result": "94 ± 9", "unit": "%"}, {"measurement": "MIC", "setting": "S. aureus (ATCC 29,213)", "result": "> 250", "unit": "µM"}, {"measurement": "Inhibition of growth of S. aureus (in words)", "setting": "S. aureus (ATCC 29,213)", "result": "inactive"}, {"measurement": "MIC", "setting": "E. coli (ATCC 25,922)", "result": "> 250", "unit": "µM"}, {"measurement": "Inhibition of growth of E. coli (in words)", "setting": "E. coli (ATCC 25,922)", "result": "inactive"}, {"measurement": "Ki", "setting": "MurF from E. coli; substrate ATP varied, UM3DAP 100 µM, D-Ala-D-Ala 600 µM fixed", "result": "28.5 ± 2.7", "unit": "µM"}, {"measurement": "Ki", "setting": "MurF from E. coli; substrate D-Ala-D-Ala varied, ATP 500 µM, UM3DAP 100 µM fixed", "result": "58.2 ± 5.1", "unit": "µM"}, {"measurement": "Ki", "setting": "MurF from E. coli; substrate UM3DAP varied, ATP 500 µM, D-Ala-D-Ala 600 µM fixed", "result": "70.1 ± 4", "unit": "µM"}, {"measurement": "Mechanism of inhibition", "setting": "MurF from E. coli; with respect to ATP", "result": "mixed inhibition; also recorded: mixed inhibitor; also recorded: Mixed (partial)"}, {"measurement": "α (mixed partial inhibition model)", "setting": "MurF from E. coli; with respect to ATP", "result": 1.5}, {"measurement": "β (mixed partial inhibition model)", "setting": "MurF from E. coli; with respect to ATP", "result": 0.4545}, {"measurement": "Mechanism of inhibition", "setting": "MurF from E. coli; with respect to ATP, listed as (–)-epicatechin", "result": "mixed type inhibition"}, {"measurement": "Mechanism of inhibition", "setting": "MurF from E. coli; with respect to D-Ala-D-Ala", "result": "uncompetitive inhibitor; also recorded: Uncompetitive (partial)"}, {"measurement": "Mechanism of inhibition", "setting": "MurF from E. coli; with respect to D-Ala-D-Ala, listed as (–)-epicatechin", "result": "uncompetitive inhibition"}, {"measurement": "Mechanism of inhibition", "setting": "MurF from E. coli; with respect to UM3DAP", "result": "uncompetitive inhibitor; also recorded: Uncompetitive (partial)"}, {"measurement": "Mechanism of inhibition", "setting": "MurF from E. coli; with respect to UM3DAP, listed as (–)-epicatechin", "result": "uncompetitive inhibition"}, {"measurement": "remaining activity at 100 µM", "setting": "E. coli MurE; 0.25 h, residual activity at 100 µM compound, mean ± SD of three independent experiments, read-out: RA (%) @ 100 µM MurE", "result": "79 ± 8", "unit": "%"}, {"measurement": "remaining activity at 100 µM", "setting": "E. coli MurC", "result": "92 ± 8", "unit": "%"}, {"measurement": "IC50", "setting": "E. coli MurF", "result": "92 ± 13", "unit": "µM"}]}, {"smiles": "Oc1cc(O)c2c(c1)O[C@H](c1ccc(O)c(O)c1)[C@@H](O)[C@H]2O", "note": "[Compound 20, Leucocyanidin]", "values": [{"measurement": "remaining activity at 100 µM", "setting": "E. coli MurD", "result": "91 ± 9", "unit": "%"}, {"measurement": "MIC", "setting": "S. aureus (ATCC 29,213)", "result": "> 250", "unit": "µM"}, {"measurement": "MIC", "setting": "E. coli (ATCC 25,922)", "result": "> 250", "unit": "µM"}, {"measurement": "IC50", "setting": "E. coli MurE; seven compound concentrations, 4-parameter Hill fit, three independent experiments", "result": "164 ± 14", "unit": "µM"}, {"measurement": "Solubility under the assay conditions (in words)", "setting": "[1]", "result": "poor solubility"}, {"measurement": "remaining activity at 100 µM", "setting": "E. coli MurC", "result": "95 ± 8", "unit": "%"}, {"measurement": "IC50", "setting": "E. coli MurF", "result": "28 ± 8", "unit": "µM"}]}]}
